Tests used:
castrated male ICR mice = assay: In vivo mouse model of efficacy and selectivity (castrated mice, tissue wet weights); conditions: for % Efficacy: (ANOVA, p < 0.05): Levator Ani muscle wet weight vs castrated vehicle-only control x100, 10 mg/kg/d, two weeks; for Seminal vesicle and/or prostate weight gain: tissue selectivity indicator, castrated mice
Description: Male ICR mice (8 weeks old) are castrated according to approved procedures (Taconic, N.Y.) and allowed to waste for eight weeks. Age-matched sham-operated mice are also prepared. (Sham-operated mice are animals that have been exposed to the same surgical procedures as castrated animals except their testes are not removed.) Animals are housed in a temperature-controlled room (24° C.) with a reversed 12 hour light/dark cycle (dark 10:00/22:00) and water and food are available ad libitum.
Test compounds are administered to the animals using conventional vehicles. For example, for oral dosing 1% Sodium Carboxymethylcellulose (CMC)+0.25% Tween 80 in sterile H2O can be used for oral formulation and 6% Ethyl-alcohol (EtOH)+94% cyclodexitrane (CDX) can be used for subcutaneous injections. Castrated mice treated with Testosteron Enanthate (TE) (10 mg/kg/d) are used as a treatment positive control whereas castrated mice treated only with vehicle are used as treatment negative control. In addition, sham-operated mice treated with vehicle only are used as control for the surgical method.
Test animals are dosed over a two week timeframe, orally or subcutaneously, with, for example, 0.3, 1, 3, 10 or 30 mg/kg/day of a compound of the present invention. After the two-week treatment, as an indicator of activity the wet weight of the Levator Ani muscle in the test group is determined and compared to the weight in the castrated, vehicle-only control group. The percent efficacy is then calculated as follows: (Wet weight in treatment group/Wet weight in control group)×100 As an indicator of tissue selective activity, the wet weight of the seminal vesicle from test animals is similarly compared to the weight of the seminal vesicles from the castrated, vehicle-only group. In addition, a comparison of the wet weight of the prostate glands from the drug-treated group, to the wet weight of the prostate glands removed from the castrated, vehicle-only group, may also be used as an indicator of tissue selective activity.
Table II (see below) provides % efficacy data for a select sample of exemplified compounds of the present invention in an animal model essentially as described above. Animal models of efficacy and selectivity similar to those described above can be readily designed and performed by the ordinarily skilled artisan, for example, Eisenberg and Gilbert, J Pharmacol Exp Ther. 1950, 99(1), 38-44, provides an alternative rat model that may be employed to show in vivo efficacy.)

[1] = biological target: T1, human AR (androgen receptor) (Homo sapiens, UniProt P10275); assay: Steroid hormone nuclear receptor binding assay (AR binding); conditions: AR binding Ki (nM), 293-AR cell lysate, 3H-methyltrienolone competition
T1 construct: expressed in transfected cells; host or cells: 293 cells (293-AR lysate)
T1 sequence (P10275 1-920): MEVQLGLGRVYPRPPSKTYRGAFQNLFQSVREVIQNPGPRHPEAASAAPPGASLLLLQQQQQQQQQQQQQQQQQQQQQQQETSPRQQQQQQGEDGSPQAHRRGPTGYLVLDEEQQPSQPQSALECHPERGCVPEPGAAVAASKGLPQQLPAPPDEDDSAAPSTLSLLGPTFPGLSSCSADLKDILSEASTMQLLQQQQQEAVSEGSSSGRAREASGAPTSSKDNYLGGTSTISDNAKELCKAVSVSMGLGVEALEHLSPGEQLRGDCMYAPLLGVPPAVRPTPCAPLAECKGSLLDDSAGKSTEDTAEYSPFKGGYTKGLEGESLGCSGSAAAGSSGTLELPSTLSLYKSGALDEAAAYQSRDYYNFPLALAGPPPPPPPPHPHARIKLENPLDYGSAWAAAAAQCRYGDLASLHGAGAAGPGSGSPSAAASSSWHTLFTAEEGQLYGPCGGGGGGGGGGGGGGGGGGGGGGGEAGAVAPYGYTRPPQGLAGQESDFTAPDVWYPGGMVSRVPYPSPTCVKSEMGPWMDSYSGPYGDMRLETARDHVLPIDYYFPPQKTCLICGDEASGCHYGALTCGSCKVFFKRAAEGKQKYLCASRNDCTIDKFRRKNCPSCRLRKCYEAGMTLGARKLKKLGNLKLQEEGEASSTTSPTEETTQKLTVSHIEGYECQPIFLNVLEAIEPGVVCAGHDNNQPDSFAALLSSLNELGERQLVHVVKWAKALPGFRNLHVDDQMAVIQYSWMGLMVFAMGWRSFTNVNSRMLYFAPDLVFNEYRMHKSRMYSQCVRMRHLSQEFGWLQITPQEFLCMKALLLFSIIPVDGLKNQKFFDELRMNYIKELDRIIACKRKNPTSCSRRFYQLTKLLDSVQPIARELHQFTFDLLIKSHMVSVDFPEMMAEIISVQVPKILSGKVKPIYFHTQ
Description: Cell lysates from 293 cells overexpressing human GR (glucocorticoid receptor), AR (androgen receptor), MR (mineralocorticoid receptor) or PR (progesterone receptor) are used for competition binding assays to determine Ki values for test compounds. Briefly, competition binding assays are run in a buffer containing 20 mM Hepes, pH 7.6, 0.2 mM EDTA, 75 mM NaCl, 1.5 mM MgCl2, 20% glycerol, 20 mM sodium molybdate, 0.2 mM DTT, 20 ug/ml aprotinin and 20 ug/ml leupeptin, using either 0.3 nM ^3H-dexamethasone for GR binding, 0.36 nM ^3H-methyltrienolone for AR binding, 0.25 nM ^3H-aldosterone for MR binding, or 0.29 nM ^3H-methyltrienolone for PR binding, and either 20 ug 293-GR lysate, 22 ug 293-AR lysate, 20 ug 293-MR lysate or 40 ug 293-PR lysate per well. Competing compounds are added at various concentrations ranging from about 0.01 nM to 10 μM. Non-specific binding is determined in the presence of 500 nM dexamethasone for GR binding, 500 nM aldosterone for MR binding, or 500 nM methyltrienolone for AR and PR binding. The binding reaction (140 μl) is incubated for overnight at 4° C., then 70 μl of cold charcoal-dextran buffer (containing per 50 ml of assay buffer, 0.75 g of charcoal and 0.25 g of dextran) is added to each reaction. Plates are mixed 8 minutes on an orbital shaker at 4° C. Plates are then centrifuged at 3,000 rpm at 4° C. for 10 minutes. An aliquot of 120 μl of the mix is transferred to another 96-well plate and 175 μl of Wallac Optiphase “Hisafe 3” scintillation fluid is added to each well. Plates are sealed and shaken vigorously on an orbital shaker. After an incubation of 2 hrs, plates are read in a Wallac Microbeta counter. The data is used to calculate an IC50 and % Inhibition at 10 μM. The Kd for ^3H-dexamethasone for GR binding, ^3H-methyltrienolone for AR binding, ^3H-aldosterone for MR binding, or ^3H-methyltrienolone for PR binding, is determined by saturation binding. The IC50 values for test compounds are converted to Ki using Cheng-Prusoff equation and the Kd determined by saturation binding assay.
Binding assay protocols for steroid hormone nuclear receptors similar to those described above can be readily designed by the ordinarily skilled artisan.

[2] = biological target: T2, human androgen receptor (AR) (Homo sapiens, UniProt P10275); assay: C2C12 AR/ARE reporter assay; type: cell-based; conditions: average; for Emax: C2C12, read-out: C2C12 % Efficacy, versus maximum stimulation obtained with 10 nM methyltrienolone; for EC50: C2C12 EC50(nM), mouse myoblast C2C12 cells, luciferase reporter, 48 h
T2 construct: expressed in transfected cells; host or cells: mouse myoblast C2C12 cells, transiently co-transfected with FuGENE
T2 sequence (P10275 1-920): T1 sequence (P10275 1-920)
Description: As an indicator of agonist activity in muscle tissue, the C2C12 AR/ARE reporter assay is performed. Briefly, mouse myoblast C2C12 cells are co-transfected using FuGENE™. […] Cells are transfected in T150 cm^2 flasks in DMEM media with 4% or 10% Fetal Bovine Serum (FBS). After a 5 hour incubation, transfected cells are trypsinized, plated in 96 well dishes in DMEM media containing 10% charcoal-stripped FBS, incubated for 2 h and then exposed to various concentrations of test compounds ranging from about 0.01 nM to 10 μM. After 48 h of incubations with compounds, cells are lysed and luciferase activity is determined using standard techniques. Data is fit to a 4 parameter-fit logistics to determine EC50 values. The % efficacy is determined versus maximum stimulation obtained with 10 nM methyltrienolone. […]

For `Cc1c(N2CCCC2c2ccc3c(c2)OCO3)ccc(C#N)c1Cl` (stereo not drawn) [Example 12], the “% Efficacy: (ANOVA, p < 0.05)” value (castrated male ICR mice; po) was 164%, the “Seminal vesicle and/or prostate weight gain” value (castrated male ICR mice) was “no weight gain” and the Ki [1] was 2.2 nM. It also gave an Emax [2] of 95.6% and an EC50 [2] of 12.4 nM.
In the case of `Cc1c(N2CCCC2c2cccnc2)ccc(C#N)c1Cl` (stereo not drawn) [Example 9], the “% Efficacy: (ANOVA, p < 0.05)” value (castrated male ICR mice; sc) is reported as 186%, the “Seminal vesicle and/or prostate weight gain” value (castrated male ICR mice) is reported as “no weight gain” and the Ki [1] is reported as 1.3 nM. For the same molecule, the Emax [2] was 90.7% and the EC50 [2] was 2.6 nM.
`CC1(c2ccc3c(c2)OCO3)CCCN1c1ccc(C#N)c(Cl)c1` (stereo not drawn) [Example 17] was tested, and the Ki [1] was 27.3 nM and the Emax [2] was 13.2%.
With `Cc1c(N2CCCC2c2cncnc2)ccc(C#N)c1Cl` (stereo not drawn) [Example 15] the Ki [1] was 2.8 nM, the Emax [2] was 85.1% and the EC50 [2] was 0.4 nM.
`CCC1CCC(c2ccccc2)N1c1ccc(C#N)c(Cl)c1C` (mixture of isomers) [Example 23, 2-Chloro-4-(2-ethyl-5-phenyl-pyrrolidin-1-yl)-3-methyl-benzonitrile] was tested, and the Ki [1] was 27.1 nM, the Emax [2] was 70.1% and the EC50 [2] was 131 nM.

From patent publication US7807691B2, “Substituted N-arylpyrrolidines as selective androgen receptor modulators” (Eli Lilly and Company, priority 2005, dated 2010)
